How the values were obtained:
Monoglyceride lipase = biological target: T1, Monoglyceride lipase (Homo sapiens, UniProt Q99685); test: Inhibition of human recombinant MAGL pre-incubated for 5 mins before MAGL substrate addition and further incubated for 10 mins
T1 sequence (Q99685 whole entry): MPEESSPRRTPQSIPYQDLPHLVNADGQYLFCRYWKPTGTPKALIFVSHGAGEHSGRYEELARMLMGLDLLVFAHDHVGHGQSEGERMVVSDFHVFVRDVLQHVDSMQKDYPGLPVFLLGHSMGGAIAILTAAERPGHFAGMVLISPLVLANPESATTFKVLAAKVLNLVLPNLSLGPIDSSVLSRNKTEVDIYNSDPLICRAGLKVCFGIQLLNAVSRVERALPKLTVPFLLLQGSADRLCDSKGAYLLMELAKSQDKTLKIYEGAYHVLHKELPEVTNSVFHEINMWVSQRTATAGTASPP

[1] = biological target: T2, Fatty-acid amide hydrolase 1 (Rattus norvegicus, UniProt P97612); test: Inhibition of rat FAAH
T2 sequence (P97612 whole entry): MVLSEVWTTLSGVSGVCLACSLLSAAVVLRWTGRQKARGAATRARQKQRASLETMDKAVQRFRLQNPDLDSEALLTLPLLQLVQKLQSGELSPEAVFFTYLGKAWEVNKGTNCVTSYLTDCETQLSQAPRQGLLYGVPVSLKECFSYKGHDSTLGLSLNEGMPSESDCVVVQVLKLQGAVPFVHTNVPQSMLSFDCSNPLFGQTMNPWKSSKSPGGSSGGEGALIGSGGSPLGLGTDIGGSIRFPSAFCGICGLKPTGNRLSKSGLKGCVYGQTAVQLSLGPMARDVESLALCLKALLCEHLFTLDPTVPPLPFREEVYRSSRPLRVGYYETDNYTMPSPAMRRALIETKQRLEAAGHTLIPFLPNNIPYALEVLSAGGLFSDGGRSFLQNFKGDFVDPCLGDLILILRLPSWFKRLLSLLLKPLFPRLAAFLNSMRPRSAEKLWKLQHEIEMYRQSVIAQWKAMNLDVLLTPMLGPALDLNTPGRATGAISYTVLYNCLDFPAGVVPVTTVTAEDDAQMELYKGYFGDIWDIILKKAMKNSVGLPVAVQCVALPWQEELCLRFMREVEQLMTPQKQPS

Mus musculus [2] = test: Antidepressant activity in ICR mouse model of reserpine-induced depression assessed as immobility time at 5 mg/kg, ig by forced swim test (reference value: 136.84 +/- 46.69 secs); format: functional
Mus musculus [3] = test: Antidepressant activity in ICR mouse model of reserpine-induced depression assessed as immobility time at 5 mg/kg, ig by tail suspension test (reference value: 132.38 +/- 44.51 secs); format: functional

Q: With `O=C(Nc1ccccc1)C1CCN(C(c2ccccc2)c2ccccc2)CC1` as the compound, how does the IC50 (Monoglyceride lipase) read?
A: Its IC50 is > 100 µM.

Q: For `O=C(Nc1cccc(Cl)c1)C1CCN(C(=O)c2ccccc2O)CC1`, which IC50 (Monoglyceride lipase) is on record?
A: Its IC50 is > 100 µM.

Q: For `COc1cccc(C(=O)N2CCC(C(=O)Nc3cccc(O)c3)CC2)c1`, which IC50 (Monoglyceride lipase) is on record?
A: Its IC50 is > 100 µM.

Q: Which IC50 [1] does the source give for `CC(C)(C)c1ccc(CN2CCN(C(=S)Sc3ccc([N+](=O)[O-])cc3[N+](=O)[O-])CC2)cc1` here?
A: Its IC50 is 1.74 µM.

Q: How did the IC50 (Monoglyceride lipase) turn out when `COc1cccc(NC(=O)C2CCN(C(c3ccccc3)c3ccccc3)CC2)c1` was run?
A: Its IC50 is > 100 µM.

Q: Which IC50 (Monoglyceride lipase) does the source give for `Cc1cc(C)cc(NC(=O)C2CCN(C(c3ccc(F)cc3)c3ccc(F)cc3)CC2)c1` here?
A: Its IC50 is > 100 µM.

Q: Which results are given for `CNCCC(Oc1ccc(C(F)(F)F)cc1)c1ccccc1.Cl` (stereo unspecified) [FLUOXETINE HYDROCHLORIDE]?
A: Time (Mus musculus [2]): 92.64 s; Time (Mus musculus [3]): 92.19 s

Q: `Cc1cc(C)cc(NC(=O)C2CCN(C(c3ccccc3)c3ccccc3)CC2)c1` was tested. Which IC50 (Monoglyceride lipase) did it give?
A: The IC50 was > 100 µM.

Q: With `O=C(Nc1ccccc1)C1CCN(C(c2ccc(F)cc2)c2ccc(F)cc2)CC1` as the compound, how does the IC50 (Monoglyceride lipase) read?
A: Its IC50 is > 100 µM.

Q: How did the IC50 (Monoglyceride lipase) turn out when `O=C(Nc1cccc(Cl)c1)C1CCN(C(=O)c2ccc(Cl)cc2)CC1` was run?
A: The IC50 was > 100 µM.

From ChEMBL document CHEMBL4613273, “Discovery of Aryl Formyl Piperidine Derivatives as Potent, Reversible, and Selective Monoacylglycerol Lipase Inhibitors” (J Med Chem, 2020)
